Measured values as given in patent publication US6900891B2, “Optical sensors for the detection of nitric oxide” (The Regents of the University of Michigan, priority 1999, dated 2005).

Test system: macrophages derived from BALB/c mice
Experiment: Extracellular nitric oxide released by macrophages, measured with fiber sensors
Type: cell-based
Settings: FIG. 19; macrophages treated with LPS and INF-γ and inhibited with 1 mM inhibitor
Protocol: Specifically, said sensors were placed in solution, approximately 0.5 cm from the macrophages.
In one embodiment, the above referenced sensors were used to quantify nitric oxide production by macrophages derived from BALB/c mice. […] Some macrophages were activated by overnight incubation with medium containing 100 U/mL IFN-γ enzyme Corp., Cambridge, Mass.) and 100 ng/mL LPS (List Biological Labs, Inc., Campbell, Calif.). In addition, to activation with IFN-γ and LPS, some cells were also treated with NMMA, (Sigma) to inhibit the production of nitric oxide. Prior to nitric oxide determinations, the macrophages were removed from incubation. For inactivated macrophages, the medium was exchanged for 2 mL Ringer's buffer. […] During measurements, the cells were kept at ambient temperature (25° C.) and 7.5 mg/mL propidium iodide was used to ascertain the degree of cell viability.
In another embodiment, macrophages were derived from the tibia and femur bone marrow of Harlan Sprague-Dawley BALB/c mice were cultured and plated by methods similar to previously published methods. For extracellular measurements with fiber sensors the cells where plated at a density of 2×10^5 on 25 mm coverslips, while those to be used for scrape-loading were plated onto 35 mm petri dishes (Nunc) at a density of 2×10^6. […]

CNC(=N)NCCC[C@H](N)C(=O)O [Nω-monomethyl-L-arginine, N^ω-monomethyl-L-arginine]
[NO]: 20 µM
